Measurements reported in paper PMC7031696 (Cell chemical biology, 2019).
Like-named read-outs stand apart in the source and are kept apart here.

What was measured:
[1] = tested on: Plasmodium falciparum 3D7-A10 parasites; experiment: Stage specificity assay (8-h exposure of synchronized stages, IC50^8h); type: cell-based; conditions: for IC50: Plasmodium falciparum
[2] = tested on: asynchronous 3D7-A10 parasite cultures; experiment: Standard 72-h exposure asexual blood stage susceptibility assay (IC50^72h); type: cell-based, Plasmodium falciparum; conditions: Plasmodium falciparum, 3D7, 72 h, read-out: Overall (72hr assay) Mean IC50 (IC50^72h)
[3] = tested on: 3D7-MR4 trophozoite parasite-infected RBCs; experiment: Metabolomic profiling (hydrophilic metabolite changes, UHPLC-MS); type: cell-based, Plasmodium falciparum

## O=C(Nc1ccsc1C(=O)NC1CCCCC1)c1ccc(F)cc1 [MMV665939]
[1]; 3D7-A10
  Ratio lowest IC50 8hr/IC50 72hr: 28.2
[1]; 3D7, read-out: Early rings Mean IC50 (IC50^8h), 8-h exposure 0–8 hr, 3D7-A10, survival at 60 h
  IC50: 17 µM
[1]; 3D7, read-out: Early trophozoites Mean IC50 (IC50^8h), 8-h exposure 16–24 hr, 3D7-A10, survival at 60 h
  IC50: 13.5 µM
[1]; 3D7, read-out: Late rings Mean IC50 (IC50^8h), 8-h exposure 8–16 hr, 3D7-A10, survival at 60 h
  IC50: 22.9 µM
[1]; 3D7, read-out: Late trophozoites Mean IC50 (IC50^8h), 8-h exposure 24–32 hr, 3D7-A10, survival at 60 h
  IC50: 39 µM
[1]; 3D7, read-out: Schizonts Mean IC50 (IC50^8h), 8-h exposure 32–40 hr, 3D7-A10, survival at 60 h
  IC50: 54.4 µM
[1]; most susceptible stages
  IC50^8h relative to IC50^72h value: > 28 fold
[2]
  IC50: 0.478 µM
[3]; metabolite 3-phosphoglycerate, log2 fold change
  Log2(fold changes) 3-phosphoglycerate: -0.3920
[3]; metabolite 4-Pyridoxic acid, log2 fold change
  Log2(fold changes) 4-Pyridoxic acid: -0.0874
[3]; metabolite 4-aminobutyrate, log2 fold change
  Log2(fold changes) 4-aminobutyrate: -0.3253
[3]; metabolite 4-phosphopantetheine, log2 fold change
  Log2(fold changes) 4-phosphopantetheine: 0.0000
[3]; metabolite 4-phosphopantothenate, log2 fold change
  Log2(fold changes) 4-phosphopantothenate: -0.8024
[3]; metabolite 5-aminopentanoic acid, log2 fold change
  Log2(fold changes) 5-aminopentanoic acid: 0.0000
[3]; metabolite 5-methyl-THF, log2 fold change
  Log2(fold changes) 5-methyl-THF: 0.0000
[3]; metabolite 5-phosphoribosyl-1-pyrophosphate, log2 fold change
  Log2(fold changes) 5-phosphoribosyl-1-pyrophosphate: 0.0000
[3]; metabolite 6-phospho-D-gluconate, log2 fold change
  Log2(fold changes) 6-phospho-D-gluconate: -0.2234
[3]; metabolite HVDD
  Log2(fold change) HVDD: -0.9968
[3]; metabolite Hydroxyisocaproic acid
  Log2(fold change) Hydroxyisocaproic acid: 0.0000
[3]; metabolite IDP
  Log2(fold change) IDP: 0.0000
[3]; metabolite IMP
  Log2(fold change) IMP: 0.0265
[3]; metabolite Inositol
  Log2(fold change) Inositol: 0.0000
[3]; metabolite Isopentyl-PP
  Log2(fold change) Isopentyl-PP: -0.3712
[3]; metabolite L-arginino-succinate
  Log2(fold change) L-arginino-succinate: -0.4465
[3]; metabolite LD
  Log2(fold change) LD: -0.2140
[3]; metabolite Myristoyl/tetradecanoyl-CoA
  Log2(fold change) Myristoyl/tetradecanoyl-CoA: 0.0000
[3]; metabolite N-Acetyl-L-alanine
  Log2(fold change) N-Acetyl-L-alanine: 1.1605
[3]; metabolite N-acetyl-L-ornithine
  Log2(fold change) N-acetyl-L-ornithine: -0.6303
[3]; metabolite N-acetyl-glucosamine-1/6-phosphate
  Log2(fold change) N-acetyl-glucosamine-1/6-phosphate: 0.0837
[3]; metabolite N-acetyl-glutamate
  Log2(fold change) N-acetyl-glutamate: -0.0309
[3]; metabolite N-acetyl-glutamine
  Log2(fold change) N-acetyl-glutamine: 0.1208
[3]; metabolite N-carbamoyl-L-aspartate
  Log2(fold change) N-carbamoyl-L-aspartate: 0.2551
[3]; metabolite NAD+
  Log2(fold change) NAD+: -0.2042
[3]; metabolite NADH
  Log2(fold change) NADH: 0.1443
[3]; metabolite NADP+
  Log2(fold change) NADP+: -0.0542
[3]; metabolite NADPH
  Log2(fold change) NADPH: 0.2171
[3]; metabolite O-acetyl-L-serine
  Log2(fold change) O-acetyl-L-serine: -0.2734
[3]; metabolite Octoluse 8/1P
  Log2(fold change) Octoluse 8/1P: -0.3337
[3]; metabolite Octoluse Bisphosphate
  Log2(fold change) Octoluse Bisphosphate: -0.2536
[3]; metabolite PD
  Log2(fold change) PD: -0.8727
[3]; metabolite PE
  Log2(fold change) PE: -0.7610
[3]; metabolite PEE
  Log2(fold change) PEE: -0.6388
[3]; metabolite PEEK
  Log2(fold change) PEEK: -0.8443
[3]; metabolite PVNF
  Log2(fold change) PVNF: -0.9198
[3]; metabolite Pyroglutamic acid
  Log2(fold change) Pyroglutamic acid: 0.4907
[3]; metabolite Pyrophosphate
  Log2(fold change) Pyrophosphate: 0.0000
[3]; metabolite Ribose-5-phosphate
  Log2(fold change) Ribose-5-phosphate: -0.6260
[3]; metabolite S-adenosyl-L-homocysteine
  Log2(fold change) S-adenosyl-L-homocysteine: 0.0358
[3]; metabolite S-adenosyl-L-methioninamine
  Log2(fold change) S-adenosyl-L-methioninamine: -2.1855
[3]; metabolite S-adenosyl-L-methionine
  Log2(fold change) S-adenosyl-L-methionine: 0.0000
[3]; metabolite S-methyl-5'-thioadenosine
  Log2(fold change) S-methyl-5'-thioadenosine: 0.4868
[3]; metabolite SD
  Log2(fold change) SD: -0.5679
[3]; metabolite SDL
  Log2(fold change) SDL: 0.0000
[3]; metabolite SID
  Log2(fold change) SID: -0.5481
[3]; metabolite Sedoheptulose bisphosphate
  Log2(fold change) Sedoheptulose bisphosphate: -0.1986
[3]; metabolite Thiamine pyrophosphate
  Log2(fold change) Thiamine pyrophosphate: -0.1355
[3]; metabolite UDP-D-glucose, log2 fold change
  Log2(fold changes) UDP-D-glucose: 0.0446
[3]; metabolite UDP-D-glucuronate, log2 fold change
  Log2(fold changes) UDP-D-glucuronate: -0.0014
[3]; metabolite UDP-N-acetyl-glucosamine, log2 fold change
  Log2(fold changes) UDP-N-acetyl-glucosamine: -0.0268
[3]; metabolite UDP, log2 fold change
  Log2(fold changes) UDP: -0.1898
[3]; metabolite UMP, log2 fold change
  Log2(fold changes) UMP: -0.0875
[3]; metabolite UTP, log2 fold change
  Log2(fold changes) UTP: 0.0000
[3]; metabolite hydroxyphenylpyruvate
  Log2(fold change) hydroxyphenylpyruvate: 0.0000
[3]; metabolite hydroxyproline/Aminolevulinate
  Log2(fold change) hydroxyproline/Aminolevulinate: -0.3323
[3]; metabolite hypoxanthine
  Log2(fold change) hypoxanthine: -0.1428
[3]; metabolite indole
  Log2(fold change) indole: 0.0000
[3]; metabolite inosine
  Log2(fold change) inosine: -0.4892
[3]; metabolite isoleucine
  Log2(fold change) isoleucine: 0.0000
[3]; metabolite lactate
  Log2(fold change) lactate: -0.3845
[3]; metabolite leucine
  Log2(fold change) leucine: 0.0000
[3]; metabolite lysine
  Log2(fold change) lysine: -0.8365
[3]; metabolite malate
  Log2(fold change) malate: -0.6264
[3]; metabolite maleic acid
  Log2(fold change) maleic acid: -0.6374
[3]; metabolite methionine
  Log2(fold change) methionine: -0.3116
[3]; metabolite myo-inositol
  Log2(fold change) myo-inositol: -0.4650
[3]; metabolite nicotinamide mononucleotide
  Log2(fold change) nicotinamide mononucleotide: -0.2358
[3]; metabolite nicotinate
  Log2(fold change) nicotinate: 0.0360
[3]; metabolite ornithine
  Log2(fold change) ornithine: -0.4311
[3]; metabolite orotate
  Log2(fold change) orotate: -0.0365
[3]; metabolite orotidine-5'-phosphate
  Log2(fold change) orotidine-5'-phosphate: -0.4342
[3]; metabolite oxaloacetate
  Log2(fold change) oxaloacetate: -0.0755
[3]; metabolite p-aminobenzoate
  Log2(fold change) p-aminobenzoate: 0.0000
[3]; metabolite p-hydroxybenzoate
  Log2(fold change) p-hydroxybenzoate: 0.0000
[3]; metabolite pantothenate
  Log2(fold change) pantothenate: -0.2337
[3]; metabolite phenylalanine
  Log2(fold change) phenylalanine: -0.4167
[3]; metabolite phenylpyruvate
  Log2(fold change) phenylpyruvate: 0.0000
[3]; metabolite phosphoenolpyruvate
  Log2(fold change) phosphoenolpyruvate: -0.3202
[3]; metabolite prephenate
  Log2(fold change) prephenate: -0.6614
[3]; metabolite proline
  Log2(fold change) proline: -0.2978
[3]; metabolite pyridoxine
  Log2(fold change) pyridoxine: -0.1996
[3]; metabolite pyruvate
  Log2(fold change) pyruvate: -0.7329
[3]; metabolite riboflavin
  Log2(fold change) riboflavin: 0.5336
[3]; metabolite ribose
  Log2(fold change) ribose: -0.3218
[3]; metabolite ribose-phosphate
  Log2(fold change) ribose-phosphate: -0.6165
[3]; metabolite ribulose-5-phosphate
  Log2(fold change) ribulose-5-phosphate: -0.5816
[3]; metabolite serine
  Log2(fold change) serine: -0.3504
[3]; metabolite sn-glycerol-3-phosphate
  Log2(fold change) sn-glycerol-3-phosphate: -0.3556
[3]; metabolite succinate/Methylmalonic acid
  Log2(fold change) succinate/Methylmalonic acid: -0.3870
[3]; metabolite succinyl-CoA/methylmalonyl-CoA
  Log2(fold change) succinyl-CoA/methylmalonyl-CoA: 0.0000
[3]; metabolite taurine
  Log2(fold change) taurine: -0.0411
[3]; metabolite thiamine
  Log2(fold change) thiamine: -0.2425
[3]; metabolite threonine/homoserine
  Log2(fold change) threonine/homoserine: -0.2222
[3]; metabolite thymidine
  Log2(fold change) thymidine: 0.0000
[3]; metabolite thymine, log2 fold change
  Log2(fold changes) thymine: 0.0000
[3]; metabolite trehalose-6-Phosphate, log2 fold change
  Log2(fold changes) trehalose-6-Phosphate: 0.0000
[3]; metabolite tryptophan, log2 fold change
  Log2(fold changes) tryptophan: -1.0924
[3]; metabolite tyrosine, log2 fold change
  Log2(fold changes) tyrosine: -0.3159
[3]; metabolite uridine, log2 fold change
  Log2(fold changes) uridine: 0.0000
